Assay [1] has as its system acute HIV infection of T-lymphoid cells. In words: Assay for inhibition of HIV replication (spread assay). It counts as cell-based, HIV-1. As to the method:
• Assay for Inhibition of HIV Replication
Assays for the inhibition of acute HIV infection of T-lymphoid cells were conducted in accordance with Vacca, J. P. et al., Proc. Natl. Acad. Sci. USA 1994, 91: 4096.

The target in the next assay is wild-type HIV-1 protease (Human immunodeficiency virus type 1 group M subtype B, UniProt P04585). Briefly: Assay for inhibition of microbial expressed HIV protease. It counts as biochemical. As to conditions: wild-type HIV-1 protease expressed in E. coli, peptide substrate, pH 5.5; read-out: Enzyme Inhibition - IC50. On the procedure: Assay for Inhibition of Microbial Expressed HIV Protease
Inhibition studies of the reaction of the protease (which was expressed in Eschericia coli) with a peptide substrate [Val-Ser-Gln-Asn-(betanapthyl)Ala-Pro-Ile-Val]. The inhibitor is first preincubated with the enzyme in assay buffer (50 mM sodium acetate, pH 5.5, 100 mM NaCl, and 0.1% BSA) for 30 minutes at room temperature. Substrate is added to 440 micromolar in a total volume of 80 microliters containing 5 picomolar HIV-1 protease, and the reaction is incubated for 1 hour at 30° C. The reaction is quenched by addition of 120 microliters of 10% phosphoric acid, and product formation is determined after separation of product and substrate on a Vydac C18 column connected to an Alliance high performance liquid chromatography system (Waters Corporation). The extent of inhibition of the reaction is determined from the peak area of the products.

Where [2] appears, read: Human immunodeficiency virus 1, T-lymphoid, read-out: Spread - IC95.
[3] abbreviates: inhibition of HIV-1 replication, 10% FBS, read-out: Spread - IC95.

We go through 22 compounds from patent publication US20100093811A1 (priority 2007, published 2010).

Where two headings read alike, the source gives them in different places. Where only a bound is given, the exact number is not on record here.

For the compound `CC(C)CCN([C@@H](CCCCNC(=O)[C@@H](N)C(c1ccccc1)c1ccccc1)C(C)O)S(=O)(=O)c1ccc(N)cc1` (mixture of isomers) [Example A1, (2S)-2-amino-N-{5-[[(4-aminophenyl)sulfonyl]-(3-methylbutyl)amino]-6-hydroxyheptyl}-3,3-diphenylpropanamide], the IC95 in assay [1] (setting [2]) was determined as 140 nM. For the same compound, the IC50 at wild-type HIV-1 protease is 0.43 nM.

With `CCC(CCC[C@@H](CO)N(CCC(C)C)S(=O)(=O)c1ccc(N)cc1)NC(=O)[C@H](C(c1ccccc1)c1ccccc1)N(C)C(=O)OC` (mixture of isomers) [Example F12, N{(5S)-5-[[(4-aminophenyl)sulfonyl](3-methylbutyl)amino]-1-ethyl-6-hydroxyhexyl}-Nα-(methoxycarbonyl)-Nα-methyl-β-phenyl-L-phenylalaninamide], in assay [1] (setting [2]), the IC95 came out at 325 nM. In addition, at wild-type HIV-1 protease, the IC50 was determined as 2.11 nM.

Turning to `COC(=O)N[C@H](C(=O)N[C@H](C)CCC[C@@H](CO)N(CCC(C)C)S(=O)(=O)c1ccc(N)cc1)C(c1ccccc1)c1ccccc1` (single isomer, unassigned) [D1(S)], the IC95 in assay [1] (setting [2]) was 7 nM. Also, the IC50 at wild-type HIV-1 protease was found to be 0.008 nM.

On to `COC(=O)N[C@H](C(=O)NC(CO)CCCC(CO)N(CCC(C)C)S(=O)(=O)c1ccc(N)cc1)C(c1ccccc1)c1ccccc1` (single isomer, unassigned) [Example M1-7A, N-[(1R or 1S,5R or 5S)-5-[[(4-aminophenyl)sulfonyl](3-methylbutyl)amino]-6-hydroxy-1-(hydroxymethyl)hexyl]-Nα-(methoxycarbonyl)-β-phenyl-L-phenylalaninamide], for which the IC95 in assay [1] (setting [2]) was determined as 302 nM. Further, the IC50 at wild-type HIV-1 protease is 0.349 nM.

`COC(=O)N[C@H](C(=O)NC(CO)CCCC(CO)N(CCC(C)C)S(=O)(=O)c1ccc(N)cc1)C(c1ccccc1)c1ccccc1` (single isomer, unassigned) [Example M1-7B, N-[(1R or 1S, 5R or 5S)-5-[[(4-aminophenyl)sulfonyl](3-methylbutyl)amino]-6-hydroxy-1-(hydroxymethyl)hexyl]-Nα-(methoxycarbonyl)-β-phenyl-L-phenylalaninamide]: the 95% effect concentration (IC95) in assay [1] (setting [3]) worked out at 230 nM. Further, the IC50 at wild-type HIV-1 protease came to 0.013 nM.

Regarding `COC(=O)N[C@H](C(=O)N[C@@H](C)CCC[C@@H](CO)N(CCC(C)C)S(=O)(=O)c1ccc(N)cc1)C(c1ccccc1)c1ccccc1` [D1(R), N-{(1S,5S)-5-[[(4-aminohenyl)sulfonyl](3-methylbutyl)amino]-6-hydroxy-1-methylhexyl}-Nα-(methoxycarbonyl)-β-phenyl-L-phenylalaninamide], the IC95 in assay [1] (setting [3]) was 98 nM. Further, on wild-type HIV-1 protease, the IC50 was found to be 0.386 nM.

With `COC(=O)N[C@H](C(=O)NCCCC[C@@H](CN)N(CCC(C)C)S(=O)(=O)c1ccc(N)cc1)C(c1ccccc1)c1ccccc1` [Example A2, Methyl [(1S)-2-({6-amino-5-[[(4-aminophenyl)sulfonyl](3-methylbutyl)amino]-hexyl)amino)-1-(diphenylmethyl)-2-oxoethyl]carbamate], the IC95 in assay [1] (setting [2]) amounted to 252 nM. Also, the IC50 on wild-type HIV-1 protease stood at 5 nM.

`Cc1ccc(S(=O)(=O)N(CCC(C)C)[C@H](CO)CC(C)CCNC(=O)[C@@H](N)C(c2ccccc2)c2ccccc2)cc1` (stereo partly drawn) [Example B1, (2S)-2-amino-N-((5S)-6-hydroxy-3-methyl-5-{(3-methylbutyl)[(4-methylphenyl)-sulfonyl]amino}hexyl)-3,3-diphenylpropanamide]: in assay [1] (setting [2]), the IC95 stood at 500 nM. Besides, the IC50 on wild-type HIV-1 protease was determined as 0.51 nM.

Consider `COC(=O)N[C@H](C(=O)NCCC(C)C[C@@H](CO)N(CCC(C)C)S(=O)(=O)c1ccc(C)cc1)C(c1ccccc1)c1ccccc1` (stereo partly shown) [Example B2], for which the IC95 in assay [1] (setting [3]) came to 368 nM. Besides, on wild-type HIV-1 protease, the IC50 came to 0.52 nM.

For the compound `CC[C@@H](CCC[C@@H](CO)N(CCC(C)C)S(=O)(=O)c1ccc(N)cc1)NC(=O)[C@@H](NC(=O)OC)C(c1ccccc1)c1ccccc1` [Example D2], the IC95 in assay [1] (Human immunodeficiency virus 1, T-lymphoid, read-out: Spread - IC95 (nM)) stood at 10 nM. For the same compound, the IC50 on wild-type HIV-1 protease came to 0.016 nM.

Turning to `CC[C@@H](CCC[C@@H](CO)N(CCC(C)C)S(=O)(=O)c1ccc(N)c(F)c1)NC(=O)[C@@H](NC(=O)OC)C(c1ccccc1)c1ccccc1` [Example D3, N-{(1S,5S)-5-[[(4-amino-3-fluorophenyl)sulfonyl](3-methylbutyl)amino]-1-ethyl-6-hydroxyhexyl}-Nα-(methoxycarbonyl)-b-phenyl-L-phenylalaninamide], the IC95 in assay [1] (setting [2]) came to 12 nM. In addition, on wild-type HIV-1 protease, the IC50 came to 0.054 nM.

Regarding `COC(=O)N[C@@H](Cc1ccccc1Cl)C(=O)N[C@@H](C)CCC[C@@H](CN)N(CCC(C)C)S(=O)(=O)c1ccc(N)cc1` [Example D4, N-{(1S,5S)-6-amino-5-[[(4-aminophenyl)sulfonyl](3-methylbutyl)amino]-1-methylhexyl}-2-chloro-Nα-(methoxycarbonyl)-L-phenylalaninamide], in assay [1] (setting [2]), the IC95 turned out to be 270 nM. Further, the IC50 on wild-type HIV-1 protease was greater than 3 nM.

Consider `COC(=O)N[C@H](C(=O)N[C@@H](C)CCC[C@@H](CO)N(CCC(C)C)S(=O)(=O)c1ccc2ncsc2c1)C(c1ccccc1)c1ccccc1` [Example D5, N-{(1S,5S)-5-[(1,3-benzothiazol-6-ylsulfonyl)(3-methylbutyl)amino]-6-hydroxy-1-methylhexyl}-Nα-(methoxycarbonyl)-β-phenyl-L-phenylalaninamide], for which the IC95 in assay [1] (setting [2]) was 9 nM. Besides, at wild-type HIV-1 protease, the IC50 was determined as 0.042 nM.

As to `CCC[C@@H](CCC[C@@H](CO)N(CCC(C)C)S(=O)(=O)c1ccc(N)cc1)NC(=O)[C@@H](NC(=O)OC)C(c1ccccc1)c1ccccc1` [Example D6, N-{(1S,5S)-5-[[(4-aminophenyl)sulfonyl](3-methylbutyl)amino]-6-hydroxy-1-propylhexyl}-Nα-(methoxycarbonyl)-β-phenyl-L-phenylalaninamide], in assay [1] (setting [2]), the IC95 came out at 56 nM. Moreover, the IC50 on wild-type HIV-1 protease was 0.106 nM.

In the case of `COC(=O)N[C@@H](Cc1ccccc1Cl)C(=O)N[C@@H](C)CCC[C@@H](CO)N(CCC(C)C)S(=O)(=O)c1ccc(N)cc1` [Example D7, N-{(1S,5S)-5-[[(4-aminophenyl)sulfonyl](3-methylbutyl)amino]-6-hydroxy-1-methylhexyl}-2-chloro-Nα-(methoxycarbonyl)-L-phenylalaninamide], the IC95 in assay [1] (setting [2]) worked out at 19 nM. In addition, on wild-type HIV-1 protease, the IC50 worked out at 0.064 nM.

On to `COC(=O)N[C@@H](Cc1ccccc1Cl)C(=O)N[C@@H](C)CCC[C@@H](CO)N(CC(C)C)S(=O)(=O)c1ccc(N)cc1` [Example D8, N-{(1S,5S)-5-[[(4-aminophenyl)sulfonyl](isobutyl)amino]-6-hydroxy-1-methylhexyl}-2-chloro-Nα-(methoxycarbonyl)-L-phenylalaninamide], for which the IC95 in assay [1] (setting [2]) is 46 nM. For the same compound, at wild-type HIV-1 protease, the IC50 was determined as 0.327 nM.

On to `COC(=O)N[C@H](C(=O)N[C@@H](C)CCC[C@@H](CO)N(CC(C)C)S(=O)(=O)c1ccc(N)cc1)C(c1ccccc1)c1ccccc1` [Example D9, N-{(1S,5S)-5-[[(4-aminophenyl)sulfonyl](isobutyl)amino]-6-hydroxy-1-methylhexyl}-Nα-(methoxycarbonyl)-β-phenyl-L-phenylalaninamide], for which the IC95 in assay [1] (setting [2]) was determined as 8 nM. In addition, at wild-type HIV-1 protease, the IC50 stood at 0.035 nM.

Consider `COC(=O)N[C@H](C(=O)N[C@H](CCC[C@@H](CO)N(CCC(C)C)S(=O)(=O)c1ccc(N)cc1)C(C)C)C(c1ccccc1)c1ccccc1` [Example D10, N-{(1R,5S)-5-[[(4-aminophenyl)sulfonyl](3-methylbutyl)amino]-6-hydroxy-1-isopropylhexyl}-Nα-(methoxycarbonyl)-β-phenyl-L-phenylalaninamide], for which the IC95 in assay [1] (setting [2]) turned out to be 37 nM. Further, the IC50 at wild-type HIV-1 protease was 0.099 nM.

For `CC[C@@H](CCC[C@@H](CO)N(CC(C)C)S(=O)(=O)c1ccc(N)cc1)NC(=O)[C@@H](NC(=O)OC)C(c1ccccc1)c1ccccc1` [Example D11, N-{(1S,5S)-5-[[(4-aminophenyl)sulfonyl](isobutyl)amino]-1-ethyl-6-hydroxyhexyl}-Nα-(methoxycarbonyl)-β-phenyl-L-phenylalaninamide], in assay [1] (setting [2]), the IC95 came to 18 nM. Moreover, on wild-type HIV-1 protease, the IC50 is 0.109 nM.

In the case of `COC(=O)N[C@H](C(=O)N[C@@H](C)CCC[C@@H](CO)N(CCC(C)C)S(=O)(=O)c1ccc(N)c(F)c1)C(c1ccccc1)c1ccccc1` [Example D12, N-{(1S,5S)-5-[[(4-amino-3-fluorophenyl)sulfonyl](3-methylbutyl)amino]-6-hydroxy-1-methylhexyl}-Nα-(methoxycarbonyl)-β-phenyl-L-phenylalaninamide], in assay [1] (setting [2]), the IC95 is 6 nM. The IC50 on wild-type HIV-1 protease is 0.012 nM.

In the case of `CCC[C@@H](CCC[C@@H](CO)N(CCCF)S(=O)(=O)c1ccc(N)cc1)NC(=O)[C@@H](NC(=O)OC)C(c1ccccc1)c1ccccc1` [Example D13, N-{(1S,5S)-5-[[(4-aminophenyl)sulfonyl](3-fluoropropyl)amino]-6-hydroxy-1-propylhexyl}-Nα-(methoxycarbonyl)-β-phenyl-L-phenylalaninamide], the IC95 in assay [1] (setting [2]) is 213 nM. In addition, the IC50 on wild-type HIV-1 protease came out at 0.867 nM.

As for `COC(=O)N[C@H](C(=O)N[C@@H](C)CCC[C@@H](CO)N(C(C)C)S(=O)(=O)c1ccc(N)cc1)C(c1ccccc1)c1ccccc1` [Example F1, N-{(1S,5S)-5-[[(4-aminophenyl)sulfonyl](isopropyl)amino]-6-hydroxy-1-methylhexyl}-Nα-(methoxycarbonyl)-β-phenyl-L-phenylalaninamide], in assay [1] (setting [2]), the IC95 stood at 32 nM.
